The nature of experiment [1]: Compound was evaluated for concentration that caused 50% inhibition of yeast Farnesyltransferase (expressed as a GST fusion protein in Escherichia coli).
Experiment [2] in a line: Compound was evaluated for concentration that caused 50% inhibition of bovine Farnesyltransferase.

pIC50: −log10 of the molar value. Where only a bound is given, the exact number is not on record here.

As a reminder, the pIC50 is the IC50 on a negative log10 scale, so that one unit is a factor of ten. High values mean a small IC50, low ones a large IC50. In the case of `CSCC[C@H](NC(=O)[C@@H]1CC[C@@H]2CC[C@](Cc3ccccc3)(NC(=O)[C@H](CS)NC(=O)OCC3c4ccccc4-c4ccccc43)C(=O)N21)C(=O)O` [(S)-2-({(3S,6R,8aR)-6-Benzyl-6-[(R)-2-(9H-fluoren-9-ylmethoxycarbonylamino)-3-mercapto-propionylamino]-5-oxo-octahydro-indolizine-3-carbonyl}-amino)-4-methylsulfanyl-butyric acid], in experiment [1], the pIC50 is 5.30.

Consider `CSCCC(NC(=O)[C@@H]1CC[C@@H]2CC[C@](Cc3ccccc3)(NC(=O)[C@@H](N)CS)C(=O)N21)C(=O)O` (stereo partly drawn) [(S)-2-{[(3S,6R,8aR)-6-((R)-2-Amino-3-mercapto-propionylamino)-6-benzyl-5-oxo-octahydro-indolizine-3-carbonyl]-amino}-4-methylsulfanyl-butyric acid], for which, in experiment [2], the pIC50 was less than 3.70.

Regarding `CSCC[C@H](NC(=O)[C@@H]1CC[C@@H]2CCC[C@H](NC(=O)[C@H](N)CS)C(=O)N21)C(=O)O` [(S)-2-{[(3S,6S,9aS)-6-((S)-2-Amino-3-mercapto-propionylamino)-5-oxo-octahydro-pyrrolo[1,2-a]azepine-3-carbonyl]-amino}-4-methylsulfanyl-butyric acid], the pIC50 in experiment [2] is less than 3.70.

For `CSCC[C@H](NC(=O)[C@H](Cc1ccccc1)NC[C@@H](NC[C@@H](N)CS)C(C)C)C(=O)O` [N-[2(S)-[2(R)-amino-3-mercaptopropylamino]-3-methylbutyl]-Phe-Met-OH], the pIC50 is 7.68 in experiment [2] and 6.52 in experiment [1].

The values above are taken from BindingDB's records for doi:10.1016/s0960-894x(99)00094-3 (Cold Spring Harbor Laboratory, 1999).
